PubChem BioAssay (NCI)
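GI50 = concentration required for 50% inhibition of growth. TGI: concentration producing complete growth inhibition.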

How the values were obtained:
Assay in all cases: NCI-60 cell line screen, 384-well format
786-0 renal = system: 786-0 renal
A498 renal = system: A498 renal
A549 NSCLC = system: A549 NSCLC
ACHN renal = system: ACHN renal
BT-549 breast = system: BT-549 breast
CAKI-1 renal = system: CAKI-1 renal
CCRF-CEM leukemia = system: CCRF-CEM leukemia
COLO 205 colon = system: COLO 205 colon
DU-145 prostate = system: DU-145 prostate
EKVX NSCLC = system: EKVX NSCLC
HCC-2998 colon = system: HCC-2998 colon
HCT-15 colon = system: HCT-15 colon
HL-60(TB) leukemia = system: HL-60(TB) leukemia
HOP-62 NSCLC = system: HOP-62 NSCLC
HOP-92 NSCLC = system: HOP-92 NSCLC
HS 578T breast = system: HS 578T breast
HT29 colon = system: HT29 colon
IGROV1 ovarian = system: IGROV1 ovarian
KM12 colon = system: KM12 colon
M14 melanoma = system: M14 melanoma
MALME-3M melanoma = system: MALME-3M melanoma
MCF7 breast = system: MCF7 breast
MDA-MB-231 breast = system: MDA-MB-231 breast
MDA-MB-435 melanoma = system: MDA-MB-435 melanoma
MDA-MB-468 breast = system: MDA-MB-468 breast
MOLT-4 leukemia = system: MOLT-4 leukemia
NCI-H226 lung = system: NCI-H226 lung
NCI-H23 lung = system: NCI-H23 lung
NCI-H322M lung = system: NCI-H322M lung
NCI-H460 NSCLC = system: NCI-H460 NSCLC
NCI-H522 lung = system: NCI-H522 lung
NCI/ADR-RES ovarian = system: NCI/ADR-RES ovarian
OVCAR-3 ovarian = system: OVCAR-3 ovarian
OVCAR-4 ovarian = system: OVCAR-4 ovarian
OVCAR-5 ovarian = system: OVCAR-5 ovarian
OVCAR-8 ovarian = system: OVCAR-8 ovarian
PC-3 prostate = system: PC-3 prostate
RPMI-8226 leukemia = system: RPMI-8226 leukemia
RXF 393 renal = system: RXF 393 renal
SF-268 CNS = system: SF-268 CNS
SF-295 CNS = system: SF-295 CNS
SF-539 CNS = system: SF-539 CNS
SK-MEL-2 melanoma = system: SK-MEL-2 melanoma
SK-MEL-28 melanoma = system: SK-MEL-28 melanoma
SK-MEL-5 melanoma = system: SK-MEL-5 melanoma
SK-OV-3 ovarian = system: SK-OV-3 ovarian
SN12C renal = system: SN12C renal
SNB-19 CNS = system: SNB-19 CNS
SNB-75 CNS = system: SNB-75 CNS
SR leukemia = system: SR leukemia
SW-620 colon = system: SW-620 colon
T-47D breast = system: T-47D breast
TK-10 renal = system: TK-10 renal
U251 glioblastoma = system: U251 glioblastoma
UACC-257 melanoma = system: UACC-257 melanoma
UACC-62 melanoma = system: UACC-62 melanoma

NCC(=O)CCC(=O)O
GI50 (786-0 renal): > 100 µM
TGI (786-0 renal): > 100 µM
GI50 (A498 renal): > 100 µM
TGI (A498 renal): > 100 µM
GI50 (A549 NSCLC): > 100 µM
TGI (A549 NSCLC): > 100 µM
GI50 (ACHN renal): > 100 µM
TGI (ACHN renal): > 100 µM
GI50 (BT-549 breast): > 100 µM
TGI (BT-549 breast): > 100 µM
GI50 (CAKI-1 renal): > 100 µM
TGI (CAKI-1 renal): > 100 µM
GI50 (CCRF-CEM leukemia): 62.4 µM
TGI (CCRF-CEM leukemia): > 100 µM
GI50 (COLO 205 colon): > 100 µM
TGI (COLO 205 colon): > 100 µM
GI50 (DU-145 prostate): > 100 µM
TGI (DU-145 prostate): > 100 µM
GI50 (EKVX NSCLC): > 100 µM
TGI (EKVX NSCLC): > 100 µM
GI50 (HCC-2998 colon): > 100 µM
TGI (HCC-2998 colon): > 100 µM
GI50 (HCT-15 colon): > 100 µM
TGI (HCT-15 colon): > 100 µM
GI50 (HL-60(TB) leukemia): > 100 µM
TGI (HL-60(TB) leukemia): > 100 µM
GI50 (HOP-62 NSCLC): > 100 µM
TGI (HOP-62 NSCLC): > 100 µM
GI50 (HOP-92 NSCLC): > 100 µM
TGI (HOP-92 NSCLC): > 100 µM
GI50 (HS 578T breast): > 100 µM
TGI (HS 578T breast): > 100 µM
GI50 (HT29 colon): > 100 µM
TGI (HT29 colon): > 100 µM
GI50 (IGROV1 ovarian): > 100 µM
TGI (IGROV1 ovarian): > 100 µM
GI50 (KM12 colon): > 100 µM
TGI (KM12 colon): > 100 µM
GI50 (M14 melanoma): > 100 µM
TGI (M14 melanoma): > 100 µM
GI50 (MALME-3M melanoma): > 100 µM
TGI (MALME-3M melanoma): > 100 µM
GI50 (MCF7 breast): > 100 µM
TGI (MCF7 breast): > 100 µM
GI50 (MDA-MB-231 breast): > 100 µM
TGI (MDA-MB-231 breast): > 100 µM
GI50 (MDA-MB-435 melanoma): > 100 µM
TGI (MDA-MB-435 melanoma): > 100 µM
GI50 (MDA-MB-468 breast): 26.7 µM
TGI (MDA-MB-468 breast): 74.7 µM
GI50 (MOLT-4 leukemia): 73.2 µM
TGI (MOLT-4 leukemia): > 100 µM
GI50 (NCI-H226 lung): > 100 µM
TGI (NCI-H226 lung): > 100 µM
GI50 (NCI-H23 lung): > 100 µM
TGI (NCI-H23 lung): > 100 µM
GI50 (NCI-H322M lung): > 100 µM
TGI (NCI-H322M lung): > 100 µM
GI50 (NCI-H460 NSCLC): > 100 µM
TGI (NCI-H460 NSCLC): > 100 µM
GI50 (NCI-H522 lung): > 100 µM
TGI (NCI-H522 lung): > 100 µM
GI50 (NCI/ADR-RES ovarian): > 100 µM
TGI (NCI/ADR-RES ovarian): > 100 µM
GI50 (OVCAR-3 ovarian): > 100 µM
TGI (OVCAR-3 ovarian): > 100 µM
GI50 (OVCAR-4 ovarian): 62.9 µM
TGI (OVCAR-4 ovarian): > 100 µM
GI50 (OVCAR-5 ovarian): > 100 µM
TGI (OVCAR-5 ovarian): > 100 µM
GI50 (OVCAR-8 ovarian): > 100 µM
TGI (OVCAR-8 ovarian): > 100 µM
GI50 (PC-3 prostate): > 100 µM
TGI (PC-3 prostate): > 100 µM
GI50 (RPMI-8226 leukemia): > 100 µM
TGI (RPMI-8226 leukemia): > 100 µM
GI50 (RXF 393 renal): > 100 µM
TGI (RXF 393 renal): > 100 µM
GI50 (SF-268 CNS): > 100 µM
TGI (SF-268 CNS): > 100 µM
GI50 (SF-295 CNS): > 100 µM
TGI (SF-295 CNS): > 100 µM
GI50 (SF-539 CNS): > 100 µM
TGI (SF-539 CNS): > 100 µM
GI50 (SK-MEL-2 melanoma): > 100 µM
TGI (SK-MEL-2 melanoma): > 100 µM
GI50 (SK-MEL-28 melanoma): > 100 µM
TGI (SK-MEL-28 melanoma): > 100 µM
GI50 (SK-MEL-5 melanoma): > 100 µM
TGI (SK-MEL-5 melanoma): > 100 µM
GI50 (SK-OV-3 ovarian): 45.2 µM
TGI (SK-OV-3 ovarian): > 100 µM
GI50 (SN12C renal): > 100 µM
TGI (SN12C renal): > 100 µM
GI50 (SNB-19 CNS): > 100 µM
TGI (SNB-19 CNS): > 100 µM
GI50 (SNB-75 CNS): > 100 µM
TGI (SNB-75 CNS): > 100 µM
GI50 (SR leukemia): > 100 µM
TGI (SR leukemia): > 100 µM
GI50 (SW-620 colon): > 100 µM
TGI (SW-620 colon): > 100 µM
GI50 (T-47D breast): > 100 µM
TGI (T-47D breast): > 100 µM
GI50 (TK-10 renal): > 100 µM
TGI (TK-10 renal): > 100 µM
GI50 (U251 glioblastoma): > 100 µM
TGI (U251 glioblastoma): > 100 µM
GI50 (UACC-257 melanoma): > 100 µM
TGI (UACC-257 melanoma): > 100 µM
GI50 (UACC-62 melanoma): > 100 µM
TGI (UACC-62 melanoma): > 100 µM
